The Ki is the dissociation constant of the complex between target and ligand, obtained from inhibition or displacement. A lower Ki goes with a stronger hold on the target.

Experiment [1] deals with T1, strychnine insensitive glycine binding site located on the NMDA receptor complex (Rattus norvegicus, UniProt P35439).
T1 construct: from tissue
In words: Affinity for strychnine insensitive glycine binding site (procedure of Kishimoto et al.). On the procedure: The potent and selective action of the compound of the invention at the strychnine-insensitive glycine binding site present on the NMDA receptor complex may be readily determined using conventional test procedures. Thus the ability to bind at the strychnine insensitive glycine binding site was determined using the procedure of Kishimoto H et al. J Neurochem 1981, 37 1015-1024. The selectivity of the action of compounds of the invention for the strychnine insensitive glycine site was confirmed in studies at other ionotropic known excitatory amino acid receptors.
The affinity of a compound of the invention for strychnine insensitive glycine binding site located on the NMDA receptor complex was determined using the procedure of Kishimoto H. et al J. Neurochem 1981, 37, 1015-1024.

Experiment [2] has as its system generalized seizures induced by an intracerebroventicular injection of NMDA. The experiment can be described thus: Inhibition of NMDA induced convulsions in the mouse (procedure of Chiamulera et al.). The class given is in vivo. The following applies: mice, iv, 0.1 mg/kg dose, NMDA icv induced generalized seizures. On the procedure:
The ability of compounds of the invention to inhibit NMDA induced convulsions in the mouse was determined using the procedure of Chiamulera C et al. Psychopharmacology 1990, 102, 551-552. In this test the ability of the compound when administered iv to inhibit the generalized seizures induced by an intracerebroventicular injection of NMDA in mice was examined at 0.1 mg/kgdose.
The results as percent (%) of inhibition at 0.1 mg/kg dose for representative compounds are given below: […]

Turning to `NC(=O)C=Cc1ccc(NC(=O)C=C2CC(C(=O)O)Nc3cc(Cl)cc(Cl)c32)cc1` (racemic) [Example 3, (+/−(E,E)-4-[4-(2-Carbamoyl-vinyl)-phenylcarbamoylmethylene]-5,7-dichloro-1,2,3,4-tetrahydro-quinoline-2-carboxylic Acid], in experiment [1], the affinity corresponds to a Ki of 7.94 nM. Besides, in experiment [2], the “% of inhibition” value was 40%.

Take `O=C(C=C1CC(C(=O)O)Nc2cc(Cl)cc(Cl)c21)Nc1ccc(OCCN2CCOCC2)cc1` (racemic) [Example 4, (+/−)(E)-5,7-Dichloro-4-[4-(2-morpholin-4-yl-ethoxy)-phenylcarbamoylmethylene]-1,2,3,4-tetrahydro-guinoline-2-carboxylic Acid]: the affinity in experiment [1] corresponds to a Ki of 63.1 nM.

Regarding `N#CCc1ccc(NC(=O)/C=C2\CC(C(=O)O)Nc3cc(Cl)cc(Cl)c32)cc1` (racemic) [Example 5, (+/−)(E)-5,7-Dichloro-4-(4-cyanomethyl-phenylcarbamoylmethylene)-1,2,3,4-tetrahydro-quinoline-2-carboxylic Acid], the affinity in experiment [1] corresponds to a Ki of 7.94 nM. This Ki is about 7.9-fold lower than that of the molecule before. With `CC(C)C(=O)NCCOc1ccc(NC(=O)C=C2CC(C(=O)O)Nc3cc(Cl)cc(Cl)c32)cc1` (racemic) [Example 6, (+/−)(E)-5,7-Dichloro-4-[4-(2-isobutyrylamino-ethoxy)-phenylcarbamoylmethylene]-1,2,3,4-tetrahydro-guinoline-2-carboxylic Acid], the Ki in experiment [1] was 15.8 nM. The “% of inhibition” value in experiment [2] was found to be 40%. Regarding `COCC(=O)Nc1ccc(NC(=O)C=C2CC(C(=O)O)Nc3cc(Cl)cc(Cl)c32)cc1` (racemic) [Example 7, (+/−)(E)-5,7-Dichloro-4-[4-(2-methoxy-acetylamino)-phenylcarbamoylmethylene-1,2,3,4-tetrahydro-quinoline-2-carboxylic Acid], in experiment [1], the affinity, expressed as Ki, was 6.31 nM. The “% of inhibition” value in experiment [2] came to 40%.

In the case of `CC(C)C(=O)NCC(=O)Nc1ccc(NC(=O)/C=C2\CC(C(=O)[O-])Nc3cc(Cl)cc(Cl)c32)cc1.[Na+]` (racemic) [Example 9, (+/−)(E)-5,7-Dichloro-4-(4-isobutyrylaminomethylcarbonylamino-phenylcarbamoylmethylene)-1,2,3,4-tetrahydro-quinoline-2-carboxylic Acid Sodium Salt], affinity in experiment [1] was put at a Ki of 7.94 nM. In addition, the “% of inhibition” value in experiment [2] is recorded as 40%.

The values are drawn from patent US6479488B1, “Tetrahydroquinoline derivatives as EAA antagonists” (Glaxo Wellcome SpA, priority 1996, dated 2002).
